Consider three compounds from US20100003217A1, “Compounds and Pharmaceutical Compositions for the Treatment of Viral Infections” (priority 2008, published 2010).

Data set [1] in a line: Stability in rat liver microsomes. It is filed as in vitro ADME. The conditions noted are these: for % Residual Compound 1 / % Residual Compound 2: rat liver microsomes 1 mg/mL; for NADPH-dependent metabolism: rat liver microsomes; for % Residual compound following incubation with liver microsomes: rat microsomes 1 mg/mL; for % Residual Compound 2: 15 min. On the procedure:
Disappearance of parent Compound 1 was used to evaluate the in vitro metabolism thereof. Relative levels of unchanged Compound 1 were measured by HPLC-UV method 1. Residual Compound 1 is reported as percent difference from time zero or control. The HPLC-UV system was as follows:
Incubations with liver microsomes or cytosol were conducted in a final volume of 0.1 mL per incubation time point. […] DMSO (final DMSO concentration was 0.1%) was incubated at 37° C. from 0-60 min with pooled microsomal protein (1.0 mg/mL), suspended in incubation buffer (0.1 M potassium phosphate, pH 7.4, 5 mM MgCl2, and 0.1 mM EDTA). The microsomal reaction was initiated by the addition of NADPH (3 mM final concentration). Incubations with (a) no protein or (b) no NADPH served as controls. Reactions were terminated by the addition of 0.2 mL of stop solution (acetonitrile). The samples were vortex-mixed for 30 sec and then centrifuged at 10,000×g for 10 min. The supernatant was dried using a Labconco CentriVap concentrator and the dry residue reconstituted in water, transferred to an HPLC glass vial and analyzed by HPLC-UV method 1 (described above).
(§1) Metabolic stability of the proposed metabolites was conducted by incubating the chemically synthesized standards Compound 2, Compound 4 and Compound 3 as described above for Compound 1. When possible, formation of Compound 5 was verified by incubating samples with alkaline phosphatase (10 U) for 60 min at 37° C.
A general note: Liver microsomes are a subcellular fraction often used to study metabolism.

Data set [2] in a line: Incubation with rat liver cytosol. It is filed as in vitro ADME. The settings on record: rat cytosol 1 mg/mL, 2 hours, 10 μM. On the procedure: (§2) Pooled liver cytosol (1.0 mg protein/mL) suspended in incubation buffer (0.1 M potassium phosphate, pH 7.4) was incubated for 2 hours at 37° C. with 10 μM Compound 1 from a stock solution in DMSO (final DMSO concentration was 0.1%); reaction was initiated with the addition of test article. Incubations with no protein served as control. Reactions were terminated by the addition of 0.1 mL of stop solution (acetonitrile). The samples were vortex-mixed for 30 sec and then centrifuged at 10,000×g for 10 min. The supernatant was dried using a Labconco CentriVap concentrator and the dry residue reconstituted in water, transferred to an HPLC glass vial and analyzed by HPLC-UV method 2 (described above).
as §1

Data set [3] in a line: Incubation with human liver cytosol. It is filed as in vitro ADME. The settings on record: human cytosol 1 mg/mL, 2 hours, 10 μM. On the procedure:
as §2, §1

In data set [4] the test system is pig liver esterase. Put plainly: Incubation with pig liver esterase. It is filed as in vitro ADME. The settings on record: for Residual compound following incubation with pig liver esterase: Esterase 14 U, 60 min, 10 μM. On the procedure: as §2, with “Pig” for “Pooled”, “esterase (14 U)” for “cytosol (1.0 mg protein/mL)”, “60 min” for “2 hours”, “controls.” for “control.”
as §1

A short description of data set [5]: Excretion of administered dose in rat urine and feces. It is filed as in vivo, male Sprague-Dawley rats. The conditions noted are these: for Percent of Dose, Total (urine, feces and liver): Oral, 24 h after [14C]Compound 1. Here is the method: Isotopically diluted [^14C]-Compound 1 was administered intravenously to male Sprague-Dawley rats at 50 mg/kg or by oral gavage at 100 mg/kg.
Percent of the administered dose (% AD) for parent drug and each metabolite at each collection period=(% of the total radioactivity in the sample attributed to the metabolite)*(total radioactivity expressed as % of the administered dose, recovered during the corresponding collection period).
The urine and feces of each animal were analyzed for radiolabel content.

Where [6] appears, read: rat, Group 1A: IV 50 mg/kg, termination 2 h.
Setting [7] is: rat, Group 1B: IV 50 mg/kg, termination 6 h.
Setting [8] is: rat, Group 1C: IV 50 mg/kg, termination 24 h.
[9] abbreviates: rat, Group 2A: PO 100 mg/kg, termination 2 h.
The mark [10] stands for this setting: rat, Group 2B: PO 100 mg/kg, termination 6 h.
[11] abbreviates: rat, Group 2C: PO 100 mg/kg, termination 24 h.

In the case of `CC(C)(CO)C(=O)SCCOP(=O)(NCc1ccccc1)OC[C@H]1O[C@@H](n2cnc3c(=O)[nH]c(N)nc32)[C@](C)(O)[C@@H]1O` (mixture of isomers) [Compound 1, 3-hydroxy-2,2-dimethyl-thiopropionic acid S-(2-{[(2R,3R,4R,5R)-5-(2-amino-6-oxo-1,6-dihydro-purin-9-yl)-3,4-dihydroxy-4-methyl-tetrahydro-furan-2-ylmethoxy]-benzylamino-phosphoryloxy}-ethyl) ester], the “% Residual Compound 1” value in data set [1] (10 μM, 0 min, NADPH) is given as 100%; in data set [1] (10 μM, 0 min, No Cofactor) it was 100%; in data set [1] (10 μM, 30 min, NADPH) it was 53%; in data set [1] (10 μM, 30 min, No Cofactor) it was 103%; in data set [1] (10 μM, 60 min, NADPH), 36%; in data set [1] (10 μM, 60 min, No Cofactor), 103%. In data set [1] (NADPH, 60 min, 10 μM), this compound came in with an NADPH-dependent metabolism of 64%. Also, the “Residual compound following incubation with liver cytosol” value in data set [2] and in data set [3] was 100% in each case. For the same compound, the “Residual compound following incubation with pig liver esterase” value in data set [4] was 75%. Besides, in data set [4] (pig liver esterase, 60-min incubation), the “Compound 1 converted to Compound 2” value was 25%. For the same compound, the “Total excretion (% AD), total (urine + feces)” value is 45.9 % AD in data set [5] (IV (1C)) and 65.6 % AD in data set [5] (PO (2C), urine data estimated). Further, the “Percent of Dose, Total (urine, feces and liver)” value in data set [5] is 65.6% of Dose. Further, the “Total excretion (urine + feces), % of the administered dose” value amounted to 45.9% in data set [5] (rat, IV dose) and 65.6% in data set [5] (rat, PO dose). For the same compound, the “radioactivity recovered in feces (% of dose)” value in data set [5] (rat, IV dose, 24 h) is on record as 39%. The “radioactivity recovered in urine (% of dose)” value in data set [5] (rat, IV dose, 24 h) is on record as 47%. In addition, the “Fecal Excretion (% AD)” value in data set [5] (setting [6]) is listed as 0.05 ± 0.08 % AD; in data set [5] (setting [7]), 0.13 ± 012 % AD; in data set [5] (setting [8]) it was 39.0 ± 4.0 % AD; in data set [5] (setting [9]), 0.001 ± 0.001 % AD; in data set [5] (setting [10]) it was 0.006 ± 0.005 % AD; in data set [5] (setting [11]), 91.3 ± 8.7 % AD. Besides, the “Urinary + Fecal Excretion (% AD)” value in data set [5] (setting [6]) turned out to be 26.0 ± 2.3 % AD; in data set [5] (setting [7]), 27.8 ± 4.9 % AD; in data set [5] (setting [8]) it was 86.0 ± 4.8 % AD; in data set [5] (setting [9]) it was 0.05 ± 0.06 % AD; in data set [5] (setting [10]) it was 0.36 ± 0.18 % AD; in data set [5] (setting [11]), 94.1 ± 8.9 % AD. Further, the “Urinary Excretion (% AD)” value is given as 25.9 ± 2.4 % AD in data set [5] (setting [6]); 27.7 ± 4.9 % AD in data set [5] (setting [7]); 46.9 ± 4.1 % AD in data set [5] (setting [8]); 0.05 ± 0.06 % AD in data set [5] (setting [9]); 0.36 ± 0.18 % AD in data set [5] (setting [10]); 2.84 ± 0.82 % AD in data set [5] (setting [11]).
In turn, `CC(C)(CO)C(=O)SCCOP(N)(=O)OC[C@H]1O[C@@H](n2cnc3c(=O)[nH]c(N)nc32)[C@](C)(O)[C@@H]1O` (mixture of isomers) [Compound 3, {9-[(2R)2-C-methyl-β-D-ribo-furanosyl]-guanin}-5′-yl-O-(hydroxy-tert-butyl-S-acyl-2-thioethyl) phosphoramidate] yielded an NADPH-dependent metabolism in data set [1] (60 min, 50 μM) of 10%. In addition, the “% Residual compound following incubation with liver microsomes” value in data set [1] (60 min, 50 μM, NADPH) came out at 90%; in data set [1] (60 min, 50 μM, No Cofactor), 101%. For the same compound, the “Residual compound following incubation with liver cytosol” value in data set [2] is 96%; in data set [3], 100%. The “Residual compound following incubation with pig liver esterase” value in data set [4] is recorded as 97%.
`C[C@@]1(O)[C@H](O)[C@@H](COP(=O)(O)NCc2ccccc2)O[C@H]1n1cnc2c(=O)[nH]c(N)nc21` [Compound 2, [(2R)-2-methyl-β-D-ribofuranosyl]guanine-N-benzylaminyl-5′-monophosphate]: the “% Residual Compound 2” value in data set [1] (10 μM, NADPH) amounted to 0%; in data set [1] (10 μM, No Cofactor) it was 0%. Further, the “Residual compound following incubation with liver cytosol” value in data set [2] and in data set [3] was 0% in each case. In addition, the “Residual compound following incubation with pig liver esterase” value in data set [4] was 0%. Further, the “Percent of Dose, Total (urine, feces and liver)” value in data set [5] is given as 0.001% of Dose.
